Data from patent publication US10160771B2, “Hepatitis C virus inhibitors and uses thereof in preparation of drugs” (priority 2014, dated 2018).

How the values were obtained:
[1] = system: HCV genotype 1b (HCV-1b) replicon cells; assay: HCV genotype 1b replicon luciferase assay (EC50); format: cell-based, hepatitis C virus genotype 1b (Con1 clone); details: 3 days, luciferase (Bright-Glo)
Description: (§1) The EC50 and CC50 values of anti-HCV compounds were determined by HCV genotype 1a (HCV-1a) and 1B (HCV-1b) stable transfer replication (replicon) cells. The source of genotype 1a replicon is H77 clones containing K1691R, K2040R and S2204I adaptive mutations. The source of genotype 1b replicon is Con1 clones containing E1202G, T1280I and K1846T adaptive mutations.
(§2) HCV 1a (HCV-1a) and 1b (HCV-1b) gene subtype replicon system contains the related HCV gene subtype non structural protein gene, G418 resistance gene NEO and luciferase gene, which results in that HCV related protein and luciferase can be stably expressed in cells. By detecting the level of expression of luciferase gene, the level of HCV replication can be determined. Therefore, the system is used as a model for screening the activity of anti-HCV compound in vitro.
(§3) HCV Replicon Cell Lines: HCV-1a and HCV-1b Cells
(§4) The compound powder was dissolved in 100% DMSO. Then the compound was diluted 5 times with 6 points, and added into the cell plate with Echo liquid handler. Ensure the final concentration of DMSO was 0.5%. Each compound was tested in double holes. Maximum initial concentration was 100, 10 or 1 nM, 5 times dilution, 6 points.
(§5) b) Cell Culture (HCV-1a or HCV-1b Replicon Cell):
(§6) 1) absorbing the culture supernatant of the cell culture and washing the cells with 10 mL PBS.
(§7) 2) adding preheated pancreatin to the washed cell culture flasks, rotating culture bottle to make the bottom of the culture bottle uniformly covered by pancreatin, then placed into 37° C., 5% CO2 incubator to digest.
(§8) 3) suspending cells in each T150 culture flask with 10-15 mL culture medium, absorbing 0.1 mL liquid and diluting 2 times by trypan blue solution as counted.
(§9) 4) diluting cells to 8×10^4/mL with the culture medium, adding the diluted cells into the compound-containing 96-well plate (Greiner, Cat.#655090) (100 μL/well, 8000 cells/well) with automatic liquid separator (Thermo Scientific). Then place into a 37° C., 5% CO2 incubator for 3 days. Cell control well: no compound, only containing 0.5% DMSO.
(§10) 6) then adding luciferase luminescence substrate Bright-Glo, after incubation for 5 minutes, detecting the luciferase activity by chemical luminescence detection system Envison (wavelength>700 nm); analyzing the anti-HCV inhibitory activity of the compounds according to luciferase data, which was used to calculate EC50 values.
(§11) The EC50 or CC50 values were obtained by nonlinear fitting analysis on inhibition percentage (inh %) data with GraphPad Prism software.

[2] = system: HCV genotype 1a (HCV-1a) replicon cells; assay: HCV genotype 1a replicon luciferase assay (EC50); format: cell-based, hepatitis C virus genotype 1a (H77 clone); details: 3 days, luciferase (Bright-Glo)
Description: as §1, §2, §3, §4, §5, §6, §7, §8, §9, §10, §11

| SMILES | EC50 ([1]; Hepatitis C virus, 72 h) [nM] | other results |
| --- | --- | --- |
| COC(=O)N[C@H](C(=O)N1CCC[C@H]1c1ncc(-c2ccc(-c3ccc([C@H](C)NC(=O)[C@H]4CCCC[C@H]4C(=O)N(NC(=O)OC)C(C)C)cc3)cc2)[nH]1)C(C)C [AA_097] | 10 to 100 | – |
| COC(=O)N[C@H](C(=O)N1CCC[C@H]1c1ncc(-c2ccc(-c3ccc(-c4cnc([C@@H]5[C@H]6CC[C@H](C6)[C@H]5C(=O)NC(C)c5cncnc5)[nH]4)cc3)cc2)[nH]1)C(C)C (stereo partly drawn) [AA_292_ENDOA2_M] | 0.101 to 1 | EC50 ([2]; Hepatitis C virus, 72 h): 1 to 10 nM |
| COC(=O)CN(C(=O)[C@@H]1CCCCC1c1ncc(-c2ccc(-c3ccc(-c4cnc([C@@H]5CCCN5C(=O)[C@@H](NC(=O)OC)C(C)C)[nH]4)cc3)cc2)[nH]1)C(C)C (stereo partly drawn) [AA_063] | 1 to 10 | – |
| COC(=O)N[C@H](C(=O)N1CCC[C@H]1c1ncc(-c2ccc3cc(-c4ccc(-c5cnc([C@@H]6CCCC[C@@H]6C(=O)N(NC(=O)OC)C(C)C)[nH]5)cc4)ccc3c2)[nH]1)C(C)C [AA_090_A] | 1 to 10 | – |
| COC(=O)N[C@H](C(=O)N1CCC[C@H]1c1ncc(-c2ccc(-c3ccc(-c4[nH]c([C@@H]5CCCN5C(=O)[C@@H](NC(=O)OC)C(C)C)c5c4OCC5)cc3)cc2)[nH]1)C(C)C [AG_114_A] | – | EC50 [1]: 0.101 to 1 nM; EC50 [2]: 10 to 100 nM |
| COC(=O)N[C@H](C(=O)N[C@H]1C2CCC(C2)C1c1ncc(-c2ccc(-c3ccc(-c4cnc([C@@H]5CCCN5C(=O)[C@@H](NC(=O)OC)C(C)C)[nH]4)cc3)cc2)[nH]1)C(C)C (stereo partly drawn) [AA_286] | 0.001 to 0.1 | EC50 ([2]; Hepatitis C virus, 72 h): 10 to 100 nM |
| COC(=O)N[C@H](C(=O)N1CCC[C@H]1c1ncc(-c2ccc(-c3ccc(-c4cnc([C@@H]5C6CCC(C6)[C@H]5C(=O)N[C@@H](C(=O)NCC(F)F)C(C)C)[nH]4)cc3)cc2)[nH]1)C(C)C (stereo partly drawn) [AA_276] | 1 to 10 | EC50 ([2]; Hepatitis C virus, 72 h): 10 to 100 nM |
| COC(=O)N[C@H](C(=O)N1CCC[C@H]1c1ncc(-c2ccc(-c3ccc(-c4cnc([C@@H]5[C@H]6CC[C@H](C6)[C@H]5C(=O)N[C@@H](C)c5cccnc5F)[nH]4)cc3)cc2)[nH]1)C(C)C [AA_283_ENDOA2_B] | 0.001 to 0.1 | EC50 ([2]; Hepatitis C virus, 72 h): 0.001 to 0.1 nM |
| COC(=O)N[C@H](C(=O)N1CCC[C@H]1c1ncc(-c2ccc(-c3ccc(-c4cnc(C5CCCC[C@H]5C(=O)N5CCNC(=O)C5)[nH]4)cc3)cc2)[nH]1)C(C)C (stereo partly drawn) [AA_054] | 0.101 to 1 | – |
| COC(=O)CNC(=O)[C@H](NC(=O)[C@@H]1[C@@H]2CC[C@@H](C2)[C@H]1c1ncc(-c2ccc(-c3ccc(-c4cnc([C@@H]5CCCN5C(=O)[C@@H](NC(=O)OC)C(C)C)[nH]4)cc3)cc2)[nH]1)C(C)C [AA_290_ENDOA2] | 0.101 to 1 | EC50 ([2]; Hepatitis C virus, 72 h): 10 to 100 nM |
| COC(=O)N[C@H](C(=O)N1CCC[C@H]1c1ncc(-c2ccc(-c3ccc(-c4cnc([C@@H]5[C@H]6CC[C@H](C6)[C@H]5C(=O)NN5CCCC5=O)[nH]4)cc3)cc2)[nH]1)C(C)C [AA_294_ENDOA2] | 0.001 to 0.1 | EC50 ([2]; Hepatitis C virus, 72 h): 10 to 100 nM |
| COC(=O)N[C@H](C(=O)N1CCC[C@H]1c1ncc(-c2ccc(-c3ccc(-c4cnc(C5CCCC[C@H]5C(=O)N5CCOCC5)[nH]4)cc3)cc2)[nH]1)C(C)C (stereo partly drawn) [AA_056] | 1 to 10 | – |
| COC(=O)N[C@H](C(=O)N1CCC[C@H]1c1ccc(-c2ccc(-c3ccc(-c4cnc([C@@H]5CCCN5C(=O)C5(NC(=O)OC)CC5)[nH]4)cc3)cc2)[nH]1)C(C)C [AG_097] | – | EC50 [1]: 0.001 to 0.1 nM; EC50 [2]: 10 to 100 nM |
| COC(=O)N[C@H](C(=O)N1CCC[C@H]1c1ncc(-c2ccc(-c3ccc(-c4cnc(C5CCCC[C@H]5C(=O)N5CCCCC5)[nH]4)cc3)cc2)[nH]1)C(C)C (stereo partly drawn) [AA_057] | 10 to 100 | – |
| COCCCNC(=O)[C@@H]1CCCCC1c1ncc(-c2ccc(-c3ccc(-c4cnc([C@@H]5CCCN5C(=O)[C@@H](NC(=O)OC)C(C)C)[nH]4)cc3)cc2)[nH]1 (stereo partly drawn) [AA_116] | 1 to 10 | – |
| COC(=O)N[C@H](C(=O)N1CCC[C@H]1c1ncc(-c2ccc3cc(-c4ccc(-c5cnc([C@H]6C7CCC(O7)[C@H]6C(=O)N(NC(=O)OC)C(C)C)[nH]5)cc4)ccc3c2)[nH]1)C(C)C (stereo partly drawn) [AA_106] | 10 to 100 | – |
| COC(=O)N[C@H](C(=O)N1CCC[C@H]1c1ncc(-c2ccc3cc(-c4ccc(-c5cnc([C@H]6CCCC[C@H]6C(=O)N(NC(=O)OC)C(C)C)[nH]5)cc4)ccc3c2)[nH]1)C(C)C [AA_090_B] | 1 to 10 | – |

| SMILES | EC50 ([1]; Hepatitis C virus, 72 h) [nM] | other results |
| --- | --- | --- |
| COC(=O)N[C@H](C(=O)N1CCC[C@H]1c1ncc(-c2ccc(-c3ccc(-c4cnc(C5CCCC[C@H]5C(=O)NCC5CC5)[nH]4)cc3)cc2)[nH]1)C(C)C (stereo partly drawn) [AA_115] | 1 to 10 | – |
| COC(=O)N[C@H](C(=O)N1CCC[C@H]1c1ncc(-c2ccc(-c3ccc(-c4cnc(C5CCCC[C@H]5C(=O)N5CCCC5)[nH]4)cc3)cc2)[nH]1)C(C)C (stereo partly drawn) [AA_055] | 1 to 10 | – |
| COC(=O)N[C@H](C(=O)N1CCC[C@H]1c1ncc(-c2ccc3cc(-c4ccc(-c5cnc([C@@H]6C7CCC(O7)[C@@H]6C(=O)N(NC(=O)OC)C(C)C)[nH]5)cc4)ccc3c2)[nH]1)C(C)C (stereo partly drawn) [AA_107] | 10 to 100 | – |
| COC(=O)N[C@H](C(=O)N1CCC[C@H]1c1ncc(-c2ccc(-c3ccc([C@@H](C)NC(=O)[C@H]4CCCC[C@H]4C(=O)N(NC(=O)OC)C(C)C)cc3)cc2)[nH]1)C(C)C [AA_096] | 10 to 100 | – |
| COC(=O)NN(C(=O)C1C2CCC(O2)[C@H]1c1ncc(-c2ccc(-c3ccc4cc(-c5cnc(C6CCCC[C@H]6C(=O)N(NC(=O)OC)C(C)C)[nH]5)ccc4c3)cc2)[nH]1)C(C)C (stereo partly drawn) [AA_092] | 10 to 100 | – |
| COCCNC(=O)[C@@H]1CCCCC1c1ncc(-c2ccc(-c3ccc(-c4cnc([C@@H]5CCCN5C(=O)[C@@H](NC(=O)OC)C(C)C)[nH]4)cc3)cc2)[nH]1 (stereo partly drawn) [AA_114] | 1 to 10 | – |
| COC(=O)N[C@H](C(=O)N1CCC[C@H]1c1ncc(-c2ccc(-c3ccc(-c4cnc(C5=C(C(=O)N(CC(=O)NC6CC6)C(C)C)CCC5)[nH]4)cc3)cc2)[nH]1)C(C)C [AA_064] | 1 to 10 | – |
| CNC(=O)CN(C(=O)C1=C(c2ncc(-c3ccc(-c4ccc(-c5cnc([C@@H]6CCCN6C(=O)[C@@H](NC(=O)OC)C(C)C)[nH]5)cc4)cc3)[nH]2)CCC1)C(C)C [AA_065] | 1 to 10 | – |
| COC(=O)N[C@H](C(=O)N1CCC[C@H]1c1ncc(-c2ccc(-c3ccc(-c4cnc(C5=C(C(=O)N(CC(=O)O)C(C)C)CCC5)[nH]4)cc3)cc2)[nH]1)C(C)C [AA_047] | 10 to 100 | – |
| COC(=O)NC(C(=O)[C@@H]1CCCCC1c1ncc(-c2ccc(-c3ccc4c(c3)cc3n4C(c4ccc(F)cc4)Oc4cc(-c5cnc([C@@H]6CCCN6C(=O)[C@@H](NC(=O)OC)C(C)C)[nH]5)ccc4-3)cc2)[nH]1)C(C)C (stereo partly drawn) [AA_089] | 1 to 10 | – |
| COC(=O)NC(C(=O)C1CCCCC1c1ncc(-c2ccc(-c3ccc(-c4cnc(C5CCCC[C@H]5C(=O)N(NC(=O)OC)C(C)C)[nH]4)cc3)cc2)[nH]1)C(C)C (stereo partly drawn) [AA_029] | 10 to 100 | – |
| COC(=O)N[C@H](C(=O)N1CCC[C@H]1c1ncc(-c2ccc(-c3ccc(-c4cnc(C5C6C=CC(C6)[C@H]5C(=O)N(NC(=O)OC)C(C)C)[nH]4)cc3)cc2)[nH]1)C(C)C (stereo partly drawn) [AA_032] | 0.101 to 1 | – |
| COC(=O)N[C@H](C(=O)N1CCC[C@H]1c1ncc(-c2ccc3cc(-c4cnc(C5CCCC[C@H]5C(=O)N(NC(=O)OC)C(C)C)[nH]4)ccc3c2)[nH]1)C(C)C (stereo partly drawn) [AA_079] | 10 to 100 | – |
| COC(=O)NC(C(=O)N1CCC[C@H]1c1ncc(-c2ccc(-c3ccc4cc(-c5cnc(C6CCCC[C@H]6C(=O)N(NC(=O)OC)C(C)C)[nH]5)ccc4c3)cc2)[nH]1)C1CCOC1 (stereo partly drawn) [AA_076] | 1 to 10 | – |
| COC(=O)N[C@H](C(=O)N1CCC[C@H]1c1ncc(-c2ccc(-c3ccc(-c4cnc(C5C6CCC(O6)[C@H]5C(=O)N(NC(=O)OC)C(C)C)[nH]4)cc3)cc2)[nH]1)C(C)C (stereo partly drawn) [AA_095] | 1 to 10 | – |
| COC(=O)N[C@H](C(=O)N1CCC[C@H]1c1ncc(-c2ccc(-c3ccc(-c4cnc(C5=C(C(=O)NC(C)C)CCC5)[nH]4)cc3)cc2)[nH]1)C(C)C [AA_027] | 10 to 100 | – |
| COC(=O)N[C@H](C(=O)N1CCC[C@H]1c1ncc(-c2ccc(-c3ccc(-c4cnc(C5C6CCC(C6)[C@H]5C(=O)N(NC(=O)OC)C(C)C)[nH]4)cc3)cc2)[nH]1)C(C)C (stereo partly drawn) [AA_016] | – | EC50 [1]: 0.101 to 1 nM |
